As a reminder, the IC50 is the concentration needed to halve the response being measured.

Sequence of human GPR17 short isoform (Q13304 29-367): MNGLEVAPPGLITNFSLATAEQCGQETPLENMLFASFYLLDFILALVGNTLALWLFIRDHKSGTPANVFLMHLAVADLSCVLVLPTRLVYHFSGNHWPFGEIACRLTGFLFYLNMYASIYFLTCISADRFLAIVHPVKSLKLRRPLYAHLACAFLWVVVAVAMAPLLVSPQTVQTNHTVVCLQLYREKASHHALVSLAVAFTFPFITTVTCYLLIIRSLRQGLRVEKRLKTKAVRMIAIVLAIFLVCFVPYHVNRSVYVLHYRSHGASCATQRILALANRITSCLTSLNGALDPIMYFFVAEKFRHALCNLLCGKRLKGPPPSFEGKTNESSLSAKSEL

The target of the assay is human GPR17 short isoform (Homo sapiens, UniProt Q13304). As to the kind of experiment: GPR17 cAMP assay (hGPR17 cAMP, antagonist mode). It counts as cell-based. The conditions noted are these: CHO-K1 cells stably expressing human GPR17 short isoform; EC80 of agonist MDL29,951; forskolin 15 μM; TR-FRET cAMP. The text has this:
Changes in intracellular cyclic adenosine monophosphate (cAMP) levels were quantified using the Nano-TRF Detection Assay kit (Roche Diagnostics, Cat. No. 05214386001). This assay allows for direct cAMP quantification in a homogeneous solution. cAMP is detected based on time-resolved fluorescence energy transfer (TR-FRET) and competitive binding of ruthenylated cAMP and endogenous cAMP to an anti-cAMP monoclonal antibody labeled with AlexaFluor-700. The Ruthenium complex serves as the FRET donor and transfers energy to AlexaFluor-700. The FRET signal is inversely proportional to the cAMP concentration.
CHO-GPR17S cells were detached with Accutase and resuspended in assay buffer consisting of Hank's Balanced Salt Solution (HBSS), 10 mM HEPES (4-(2-hydroxyethyl) piperazine-1-ethanesulfonic acid solution) and 0.1% bovine serum albumin (pH 7.4). The cells were seeded in black 384-well plates (Corning) at a density of 10,000 cells/20 μl assay buffer until the addition of compounds.
Test antagonist compounds were serially diluted in dimethyl sulfoxide (DMSO) and spotted in 384-well plates. The compounds were then diluted in HBSS buffer supplemented with an EC80 concentration of MDL29,951 (3-(2-Carboxy-4,6-dichloroindol-3-yl) propionic acid) (GPR17 agonist) plus 3-Isobutyl-1-methylxanthine (IBMX) (0.5 mM final concentration) and added to the cells at room temperature. Forskolin (15 μM final concentration) was added 5 minutes after the test compounds and the cells were incubated at room temperature for 30 minutes. The assay was stopped by adding cAMP detection mix (containing detergents for cell lysis) for 90 minutes at room temperature.
Cellular cAMP was measured using a Paradigm reader (Molecular Devices). The raw data was used to calculate the FRET signal based on the assay's P-factor as per cAMP kit instructions. The data was normalized to the maximal activity of a reference antagonist and dose response curves were fitted to the percent activity of the test compounds using a sigmoidal dose response model (Genedata Screener).
For orientation: Cyclic AMP is a second messenger, typically raised through Gs and lowered through Gi signalling.
Regarding `[2H]C([2H])(F)C([2H])([2H])Oc1cnc(NS(=O)(=O)c2c[nH]c3c(F)c(Cl)ccc23)nc1OC` [Example 1, 6-chloro-7-fluoro-N-[4-methoxy-5-(1,1,2,2-tetradeuterio-2-fluoro-ethoxy)pyrimidin-2-yl]-1H-indole-3-sulfonamide], the IC50 stood at 0.085 µM. This counts as double-digit nanomolar. For the molecule `[2H]C([2H])(F)C([2H])([2H])Oc1c(OC)nc(NS(=O)(=O)c2c[nH]c3nc(Br)ccc23)nc1OC` [Example 2, 6-bromo-N-[4,6-dimethoxy-5-(1,1,2,2-tetradeuterio-2-fluoro-ethoxy)pyrimidin-2-yl]-1H-pyrrolo [2,3-b]pyridine-3-sulfonamide], the IC50 is 0.042 µM. In turn, `[2H]C([2H])(F)C([2H])([2H])Oc1c(OC)nc(NS(=O)(=O)c2c[nH]c3nc(Cl)ccc23)nc1OC` [Example 3, 6-chloro-N-[4,6-dimethoxy-5-(1,1,2,2-tetradeuterio-2-fluoro-ethoxy)pyrimidin-2-yl]-1H-pyrrolo[2,3-b]pyridine-3-sulfonamide] came in with an IC50 of 0.063 µM. This IC50 lies about 1.5-fold higher than the previous one. Turning to `[2H]C([2H])(c1cnc(NS(=O)(=O)c2c[nH]c3cc(F)ccc23)nc1OC)C(F)F` [Example 4, N-[5-(1,1-dideuterio-2,2-difluoro-ethyl)-4-methoxy-pyrimidin-2-yl]-6-fluoro-1H-indole-3-sulfonamide], the IC50 was found to be 0.094 µM.

The molecule `[2H]C([2H])(c1cnc(NS(=O)(=O)c2c[nH]c3c(F)c(Cl)ccc23)nc1OC)C(F)F` [Example 5, 6-chloro-N-[5-(1,1-dideuterio-2,2-difluoro-ethyl)-4-methoxy-pyrimidin-2-yl]-7-fluoro-1H-indole-3-sulfonamide] returned an IC50 of 0.107 µM.

As for `[2H]C([2H])(CF)Oc1cnc(NS(=O)(=O)c2c[nH]c3c(F)c(Cl)ccc23)nc1OC` [Example 6, 6-chloro-N-[5-(1,1-dideuterio-2-fluoro-ethoxy)-4-methoxy-pyrimidin-2-yl]-7-fluoro-1H-indole-3-sulfonamide], the IC50 was 0.105 µM. Turning to `[2H]C([2H])(c1cnc(NS(=O)(=O)c2c[nH]c3cc(Cl)ccc23)nc1OC)C(F)F` [Example 7, 6-chloro-N-[5-(1,1-dideuterio-2,2-difluoro-ethyl)-4-methoxy-pyrimidin-2-yl]-1H-indole-sulfonamide], the IC50 is 0.055 µM. `[2H]C([2H])(c1cnc(NS(=O)(=O)c2c[nH]c3c(F)c(Br)ccc23)nc1OC)C(F)F` [Example 8, 6-bromo-N-[5-(1,1-dideuterio-2,2-difluoro-ethyl)-4-methoxy-pyrimidin-2-yl]-7-fluoro-1H-indole-3-sulfonamide] came in with an IC50 of 0.137 µM. `[2H]C([2H])(c1c(OC)nc(NS(=O)(=O)c2c[nH]c3nc(Br)ccc23)nc1OC)C(F)F` [Example 9, 6-bromo-N-[5-(1,1-dideuterio-2,2-difluoro-ethyl)-4,6-dimethoxy-pyrimidin-2-yl]-1H-pyrrolo[2,3-b]pyridine-3-sulfonamide] yielded an IC50 of 0.023 µM. This IC50 is about 6-fold lower than that of the molecule before. The value for `[2H]C([2H])(Oc1c(OC)nc(NS(=O)(=O)c2c[nH]c3nc(Br)ccc23)nc1OC)C(F)F` [Example 10, 6-bromo-N-[5-(1,1-dideuterio-2,2-difluoro-ethoxy)-4,6-dimethoxy-pyrimidin-2-yl]-1H-pyrrolo[2,3-b]pyridine-3-sulfonamide] was 0.081 µM; that for `[2H]C([2H])(c1c(OC)nc(NS(=O)(=O)c2c[nH]c3nc(Cl)ccc23)nc1OC)C(F)F` [Example 11, 6-chloro-N-[5-(1,1-dideuterio-2,2-difluoro-ethyl)-4,6-dimethoxy-pyrimidin-2-yl]-1H-pyrrolo[2,3-b]pyridine-3-sulfanomide] was 0.037 µM; that for `[2H]C([2H])(c1c(OC)nc(NS(=O)(=O)c2c[nH]c3nc(C)ccc23)nc1OC)C(F)F` [Example 12, N-[5-(1,1-dideuterio-2,2-difluoro-ethyl)-4,6-dimethoxy-pyrimidin-2-yl]-6-methyl-1H-pyrrolo [2,3-b]pyridine-3-sulfonamide] was 0.057 µM.

The record behind these values is patent US20250188061A1, “NOVEL DEUTERATED PYRIMIDIN-2-YL SULFONAMIDE DERIVATIVES” (Hoffmann-La Roche Inc., priority 2022, published 2025).
